What was measured:
MHCC97L = assay: Cell proliferation assay (MTS); assay type: cell-based, human
Procedure: (§1) The sensitivity of a panel of human cancer cell lines to the effects of compounds was determined in a standard proliferation assay. Cell lines were sourced through the AstraZeneca Cell Bank.
(§2) Cells were plated in 96 well plates at densities of 1000-6000 cells per well in RPMI media containing 10% FBS. After incubation at 37° C. for 16 hours, various concentrations of compound were added to the assay plates. After incubation for an additional 72 h, the viable cells were determined by the addition of MTS reagent (Promega #3582) to each well for 2 h. MTS is a tetrazolium salt that is bioreduced by metabolically active cells in the presence of an electron coupling reagent to formazan. The formazan product was then quantitated by absorbance at 490 nm, as an indicator of the relative number of live cells. In order to determine the GI50 (concentration at which growth of cells was inhibited by 50%) the relative number of cells present at the time of drug addition was determined by comparison with the MTS readout before the drug was added, and this value was subtracted from the 72 hr value of untreated cells as a measure of cell growth during the assay.

SW480 = assay: Cell proliferation assay (MTS); assay type: cell-based, human
Procedure: (§3) The sensitivity of a panel of human cancer cell lines to the effects of compounds was determined in a standard proliferation assay.
(§4) Cells were plated in 96 well plates at densities of 1000-6000 cells per well in RPMI media containing 10% FBS. After incubation at 37° C. for 16 hours, various concentrations of compound were added to the assay plates. After incubation for an additional 72 h, the viable cells were determined by the addition of MTS reagent (Promega #3582) to each well for 2 h. […] The formazan product was then quantitated by absorbance at 490 nm, as an indicator of the relative number of live cells. In order to determine the GI50 (concentration at which growth of cells was inhibited by 50%) the relative number of cells present at the time of drug addition was determined by comparison with the MTS readout before the drug was added, and this value was subtracted from the 72 hr value of untreated cells as a measure of cell growth during the assay.

SNU1 = assay: Cell proliferation assay (MTS); assay type: cell-based, human
Procedure: as §1, §2

MONOMAC6 = assay: Cell proliferation assay (MTS); assay type: cell-based, human
Procedure: as §3, §2

2313287 = assay: Cell proliferation assay (MTS); assay type: cell-based, human
Procedure: as §1, §4

HUPT3 = assay: Cell proliferation assay (MTS); assay type: cell-based, human
Procedure: as §1, §2

SNU601 = assay: Cell proliferation assay (MTS); assay type: cell-based, human
Procedure: as §1, §2

SW948 = assay: Cell proliferation assay (MTS); assay type: cell-based, human
Procedure: as §3, §2

SC1 = assay: Cell proliferation assay (MTS); assay type: cell-based, human
Procedure: as §3, §4

AZ521 = assay: Cell proliferation assay (MTS); assay type: cell-based, human
Procedure: as §3, §2

OCUM1 = assay: Cell proliferation assay (MTS); assay type: cell-based, human
Procedure: as §1, §2

SNU16 = assay: Cell proliferation assay (MTS); assay type: cell-based, human
Procedure: as §3, §2

SW900 = assay: Cell proliferation assay (MTS); assay type: cell-based, human
Procedure: as §1, §2

HPAFII = assay: Cell proliferation assay (MTS); assay type: cell-based, human
Procedure: as §3, §2

PNT1A = assay: Cell proliferation assay (MTS); assay type: cell-based, human
Procedure: as §3, §2

MOLM16 = assay: Cell proliferation assay (MTS); assay type: cell-based, human
Procedure: as §3, §2

HEP3B = assay: Cell proliferation assay (MTS); assay type: cell-based, human
Procedure: as §3, §2

NUGC3 = assay: Cell proliferation assay (MTS); assay type: cell-based, human
Procedure: as §1, §2

HEPG2 = assay: Cell proliferation assay (MTS); assay type: cell-based, human
Procedure: as §1, §2

MOLM13 = assay: Cell proliferation assay (MTS); assay type: cell-based, human
Procedure: as §3, §2

SNU368 = assay: Cell proliferation assay (MTS); assay type: cell-based, human
Procedure: as §3, §2

H2286 = assay: Cell proliferation assay (MTS)
Procedure: as §3, §4

SKHEP1 = assay: Cell proliferation assay (MTS); assay type: cell-based, human
Procedure: as §3, §4

KATOIII = assay: Cell proliferation assay (MTS); assay type: cell-based, human
Procedure: as §3, §4

LS180 = assay: Cell proliferation assay (MTS); assay type: cell-based, human
Procedure: as §3, §4

HCC70 xenograft = assay: Tumour growth inhibition, HCC70 xenograft model; assay type: in vivo, mouse; settings: Example 3 alone 25 mg/kg BID every day; FIG. 13
Procedure: HCC70 is breast tumour cell line which is deficient in PTEN gene expression. Female Swiss athymic nude mice (swiss nu/nu—AZUK) were transplanted subcutaneously with the breast ductal epithelial tumour cell line HCC70 (ATCC—CRL2315) cells. 1×10^6 cells in 50% matrigel (BD Bioscience) were injected s.c. on the left flank of the animals.
Animals were randomised into groups of 10-15 when tumours reached a volume of ˜200-300 mm^3 and treatment commenced. Animals were dosed for 3-4 weeks by peroral route, with compound in a suitable vehicle at defined doses and schedules. Tumours were measured two-three times weekly by caliper and volume of tumours calculated using elliptical formula (pi/6×width×width×length).

U937 = assay: Cell proliferation assay (MTS); assay type: cell-based, human
Procedure: as §3, §2

SU8686 = assay: Cell proliferation assay (MTS); assay type: cell-based, human
Procedure: as §3, §4

COLO320DM = assay: Cell proliferation assay (MTS)
Procedure: as §1, §2

AMO1 = assay: Cell proliferation assay (MTS); assay type: cell-based, human
Procedure: as §1, §2

H1975 = assay: Cell proliferation assay (MTS); assay type: cell-based, human
Procedure: as §1, §2

LUDLU1 = assay: Cell proliferation assay (MTS); assay type: cell-based, human
Procedure: as §3, §4

BFTC905 = assay: Cell proliferation assay (MTS); assay type: cell-based, human
Procedure: as §3, §4

VMCUB1 = assay: Cell proliferation assay (MTS); assay type: cell-based, human
Procedure: as §3, §2

CC20 = assay: Cell proliferation assay (MTS); assay type: cell-based, human
Procedure: as §3, §2

GTL16 = assay: Cell proliferation assay (MTS); assay type: cell-based, human
Procedure: as §3, §4

SNU668 = assay: Cell proliferation assay (MTS); assay type: cell-based, human
Procedure: as §3, §4

HCC1954 = assay: Cell proliferation assay (MTS); assay type: cell-based, human
Procedure: as §3, §2

H1869 = assay: Cell proliferation assay (MTS); assay type: cell-based, human
Procedure: as §3, §2

[1] = Homo sapiens, Stomach, PIK3CA WT
[2] = Homo sapiens, Colon, PIK3CA MUT
[3] = Homo sapiens, Blood/lymph, PIK3CA WT

## CCn1nc(C2CCN(C(=O)CCO)CC2)nc1-c1cnc(N)c(-c2nnc(C(C)(C)C)o2)n1 [Example 3, 1-(4-(5-(5-amino-6-(5-tert-butyl-1,3,4-oxadiazol-2-yl)pyrazin-2-yl)-1-ethyl-1H-1,2,4-triazol-3-yl)piperidin-1-yl)-3-hydroxypropan-1-one]
MHCC97L
  Category: Resistant (resistant (GI50>1.0 μM))
MHCC97L; Homo sapiens, Liver, PIK3CA WT
  GI50: 3.35 µM
SW480
  Category: Resistant (resistant (GI50>1.0 μM))
SW480; Homo sapiens, Colon, PIK3CA WT
  GI50: 15.9 µM
SNU1
  Category: Resistant (resistant (GI50>1.0 μM))
SNU1; [1]
  GI50: 15 µM
MONOMAC6
  Category: Resistant (resistant (GI50>1.0 μM))
MONOMAC6; Homo sapiens, MONO-MAC-6, Blood/lymph, PIK3CA WT
  GI50: 2.62 µM
2313287
  Category: Resistant (resistant (GI50>1.0 μM))
2313287; [1]
  GI50: 1.34 µM
HUPT3
  Category: Resistant (resistant (GI50>1.0 μM))
HUPT3; Homo sapiens, HuP-T3, Pancreas, PIK3CA WT
  GI50: 13.4 µM
SNU601
  Category: Sensitive (sensitive (GI50<=1.0 μM))
SNU601; Homo sapiens, SNU-601, Stomach, PIK3CA MUT
  GI50: 0.506 µM
SW948
  Category: Sensitive (sensitive (GI50<=1.0 μM))
SW948; [2]
  GI50: 0.911 µM
SC1
  Category: Resistant (resistant (GI50>1.0 μM))
SC1; Homo sapiens, SC-1, Blood/lymph, PIK3CA WT
  GI50: 30 µM
AZ521
  Category: Resistant (resistant (GI50>1.0 μM))
AZ521; Homo sapiens, AZ-521, Duodenum, PIK3CA WT
  GI50: 2.06 µM
OCUM1
  Category: Resistant (resistant (GI50>1.0 μM))
OCUM1; [1]
  GI50: 2.33 µM
SNU16
  Category: Resistant (resistant (GI50>1.0 μM))
SNU16; Homo sapiens, SNU-16, Stomach, PIK3CA WT
  GI50: 16.8 µM
SW900
  Category: Resistant (resistant (GI50>1.0 μM))
SW900; Homo sapiens, Lung, PIK3CA WT
  GI50: 30 µM
HPAFII
  Category: Resistant (resistant (GI50>1.0 μM))
HPAFII; Homo sapiens, HPAF-II, Pancreas, PIK3CA WT
  GI50: 2.63 µM
PNT1A
  Category: Resistant (resistant (GI50>1.0 μM))
PNT1A; Homo sapiens, Prostate, PIK3CA WT
  GI50: 2.17 µM
MOLM16
  Category: Resistant (resistant (GI50>1.0 μM))
MOLM16; [3]
  GI50: 4.6 µM
HEP3B
  Category: Resistant (resistant (GI50>1.0 μM))
HEP3B; Homo sapiens, Liver, PIK3CA WT
  GI50: 6.69 µM
NUGC3
  Category: Resistant (resistant (GI50>1.0 μM))
NUGC3; Homo sapiens, NUGC-3, Stomach, PIK3CA WT
  GI50: 24.2 µM
HEPG2
  Category: Resistant (resistant (GI50>1.0 μM))
HEPG2; Homo sapiens, Liver, PIK3CA WT
  GI50: 30 µM
MOLM13
  Category: Resistant (resistant (GI50>1.0 μM))
MOLM13; Homo sapiens, MOLM-13, Blood/lymph, PIK3CA WT
  GI50: 1.22 µM
SNU368
  Category: Resistant (resistant (GI50>1.0 μM))
SNU368; Homo sapiens, Liver, PIK3CA WT
  GI50: 1.6 µM
H2286; H2286
  Category: Resistant (resistant (GI50>1.0 μM))
H2286; Homo sapiens, NCI-H2286
  GI50: 20 µM
SKHEP1
  Category: Resistant (resistant (GI50>1.0 μM))
SKHEP1; Homo sapiens, SK-HEP1, Liver, PIK3CA WT
  GI50: 30 µM
KATOIII
  Category: Resistant (resistant (GI50>1.0 μM))
KATOIII; Homo sapiens, KATO III, Stomach, PIK3CA WT
  GI50: 9.15 µM
LS180
  Category: Resistant (resistant (GI50>1.0 μM))
LS180; [2]
  GI50: 9.94 µM
HCC70 xenograft
  tumour growth: inhibited growth more strongly
U937
  Category: Resistant (resistant (GI50>1.0 μM))
U937; Homo sapiens, U-937, Blood/lymph, PIK3CA WT
  GI50: 7.34 µM
SU8686
  Category: Resistant (resistant (GI50>1.0 μM))
SU8686; Homo sapiens, SU.86.86, Pancreas, PIK3CA WT
  GI50: 18 µM
COLO320DM; COLO320DM
  Category: Resistant (resistant (GI50>1.0 μM))
COLO320DM; Homo sapiens, COLO 320DM
  GI50: 2.51 µM
AMO1
  Category: Resistant (resistant (GI50>1.0 μM))
AMO1; [3]
  GI50: 26.9 µM
H1975
  Category: Resistant (resistant (GI50>1.0 μM))
H1975; Homo sapiens, NCI-H1975, Lung, PIK3CA MUT
  GI50: 2.26 µM
LUDLU1
  Category: Resistant (resistant (GI50>1.0 μM))
LUDLU1; Homo sapiens, LUDLU-1, Lung, PIK3CA WT
  GI50: 4.65 µM
BFTC905
  Category: Sensitive (sensitive (GI50<=1.0 μM))
BFTC905; Homo sapiens, BFTC-905, Bladder, PIK3CA WT
  GI50: 0.966 µM
VMCUB1
  Category: Sensitive (sensitive (GI50<=1.0 μM))
VMCUB1; Homo sapiens, VM-CUB-1, Bladder, PIK3CA MUT
  GI50: 0.732 µM
CC20
  Category: Resistant (resistant (GI50>1.0 μM))
CC20; Homo sapiens, Colon, PIK3CA WT
  GI50: 30 µM
GTL16
  Category: Resistant (resistant (GI50>1.0 μM))
GTL16; Homo sapiens, GTL 16, Stomach, PIK3CA WT
  GI50: 17.4 µM
SNU668
  Category: Resistant (resistant (GI50>1.0 μM))
SNU668; [1]
  GI50: 15.5 µM
HCC1954
  Category: Sensitive (sensitive (GI50<=1.0 μM))
HCC1954; Homo sapiens, Breast, PIK3CA MUT
  GI50: 0.879 µM
H1869
  Category: Resistant (resistant (GI50>1.0 μM))
H1869; Homo sapiens, Lung, PIK3CA WT
  GI50: 6.04 µM

Source: patent US9156831B2, “Chemical compounds” (ASTRAZENECA AB, priority 2013, dated 2015)
